In patent publication US5492821A, “Stabilized polyacrylic saccharide protein conjugates” (Cargill, Inc., priority 1991, dated 1996):
Numbered stars: 1 amine (or outer) side, 2 acyl side, 3 side chain; on linkers, the order of the positions; unused ones are H or OH. Peptide text beside a SMILES is read from it. * marks the point of attachment. pNA = O=[N+]([O-])c1ccc(N*)cc1; Suc = O=C(CCC(=O)[*:2])[*:1]

Assays:
Format in all cases: biochemical
Details in all cases: 0.05M sodium phosphate buffer at pH 8 containing 10% methanol
[1] = tested on: CPC-trypsin (poly(2-N-methacrylamido-2-deoxy-D-glucose)-trypsin conjugate); test: Km and kcat of enzyme-polymer conjugate, Table 1
Experimental: A protein polymer conjugate of poly(2-N-methacrylamido-2-deoxy-D-glucose) and trypsin was prepared by the reductive amination procedure as shown below: [drawing 23] To 20 mL of a 0.05M sodium borate solution at pH 8 was added 148 mg (3×10^-8 mole) of poly(2-N-methacrylamido-2-deoxy-D-glucose) with 30 mg (1.2×10^-6 mole) of trypsin and 10 mg ([…]) of purified sodium cyanoborohydride. The solution was placed in a shaking water bath at 60 oscillations/min at 35° C. for 48 hours. The progress of the reaction was followed by gel filtration chromatography using 0.05M sodium borate as the eluent on Sephacryl S-200 with a flow rate of 1.5 mL/min. Dialysis of the solution using Spectra Por CE 100K MWCO membrane against 2×250 mL of 0.05M sodium borate at pH 8 for 14 hours gave a 42% yield of active stabilized trypsin-polymer conjugate.
(§1) The yield of the active enzyme was determined by comparison of the relative activity of the native trypsin and the trypsin-polymer conjugate for N-succinyl-Ala-Ala-Pro-Phe p-nitroanilide as the substrate in 0.05M sodium phosphate buffer at pH 8 containing 10% methanol.

[2] = biological target: α-chymotrypsin (native) (Bos taurus, UniProt P00766); test: Km and kcat of enzyme, Table 1
Experimental: as §1
The procedure of EXAMPLE 8 (a) (i) was repeated in every essential detail except that α-chymotrypsin was used instead of trypsin.

[3] = tested on: trypsin (native); test: Km and kcat of enzyme, Table 1
Experimental: as §1

`C[C@H](NC(=O)CCC(=O)O)C(=O)N[C@@H](C)C(=O)N1CCC[C@H]1C(=O)N[C@@H](Cc1ccccc1)C(=O)Nc1ccc([N+](=O)[O-])cc1` [N-succinyl-Ala-Ala-Pro-Phe p-nitroanilide] (Suc-AAPF-pNA) was tested, and the Km [1] was 890 µM, the kcat [1] was 1.2 s⁻¹ and the Km [2] was 40 µM. The kcat [2] was 33 s⁻¹, the Km [3] was 760 µM and the kcat [3] was 0.9 s⁻¹.
